Reference: PubChem BioAssay (NCI)
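All cell lines were grown in 96-well plates and treated with compound for 48 hours. Abbreviation: GI50, concentration required for 50% inhibition of growth. TGI: concentration producing complete growth inhibition.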

Experiments:
Test in all cases: NCI tumour cell line growth inhibition, 48 h
CAKI-1 renal = system: CAKI-1 renal
DU-145 prostate = system: DU-145 prostate
MDA-MB-231 breast = system: MDA-MB-231 breast
OVCAR-5 ovarian = system: OVCAR-5 ovarian
HT29 colon = system: HT29 colon
MOLT-4 leukemia = system: MOLT-4 leukemia
HOP-62 NSCLC = system: HOP-62 NSCLC
IGROV1 ovarian = system: IGROV1 ovarian
U251 CNS = system: U251 CNS
SF-539 CNS = system: SF-539 CNS

Structure (SMILES) | GI50 (CAKI-1 renal) | TGI (CAKI-1 renal) | GI50 (DU-145 prostate) | TGI (DU-145 prostate) | GI50 (MDA-MB-231 breast) | TGI (MDA-MB-231 breast) | GI50 (OVCAR-5 ovarian) | TGI (OVCAR-5 ovarian) | GI50 (HT29 colon) | TGI (HT29 colon) | GI50 (MOLT-4 leukemia) | TGI (MOLT-4 leukemia) | GI50 (HOP-62 NSCLC) | TGI (HOP-62 NSCLC) | GI50 (IGROV1 ovarian) | TGI (IGROV1 ovarian) | GI50 (U251 CNS) | TGI (U251 CNS) | GI50 (SF-539 CNS) | TGI (SF-539 CNS)
C=C1C(=O)O[C@H]2[C@H]1CC/C(COC(=O)/C=C\C(=O)NCc1ccc(Cn3c(=O)sn(-c4ccc(OC)cc4)c3=O)cc1)=C\CC[C@@]1(C)O[C@@H]21 | 0.291 µM | 0.997 µM | 0.694 µM | 1.36 µM | 0.701 µM | 1.7 µM | 0.825 µM | 1.71 µM | 0.395 µM | 1.64 µM | 0.584 µM | 9.78 µM | 2.76 µM | 10 µM | 0.505 µM | 1.21 µM | 0.834 µM | 2.19 µM | 0.736 µM | 1.41 µM
COc1ccc(Nc2c3c4c(cccc4[nH]c2=O)C(=O)c2ccccc2-3)cc1 | < 0.0218 µM | 1.23 µM | < 0.0181 µM | 0.0467 µM | 0.0451 µM | – | 0.0479 µM | > 90.1 µM | < 0.01 µM | – | 0.558 µM | – | 0.0457 µM | > 100 µM | 0.0365 µM | > 100 µM | 0.0434 µM | > 68.9 µM | 0.0206 µM | 0.0687 µM
CC1(C)Cc2cccc(OCC(O)CN3CCN(c4ccc(F)cc4)CC3)c2O1 (stereo unspecified) | 15.8 µM | 37.7 µM | 24.1 µM | > 50 µM | 8.58 µM | 36 µM | 22.1 µM | > 50 µM | 7.87 µM | 17.2 µM | 20.2 µM | > 50 µM | 21.9 µM | > 50 µM | 20 µM | > 50 µM | 12.8 µM | 39.8 µM | 13 µM | 27.3 µM
CCCN(CCC)c1ccc(C=O)cc1 | 53.2 µM | > 100 µM | 46.7 µM | > 100 µM | > 100 µM | > 100 µM | > 100 µM | > 100 µM | 52 µM | > 100 µM | 29.8 µM | > 100 µM | > 88 µM | > 100 µM | > 84.4 µM | > 100 µM | 42 µM | > 100 µM | > 100 µM | > 100 µM
Cc1ccc(Cl)cc1Nc1nc(C(F)(F)F)ccc1C(=O)N/N=C/c1c(Cl)cccc1Cl | 0.495 µM | 3.49 µM | 1.21 µM | > 100 µM | 0.524 µM | 2.85 µM | 2.21 µM | 20.4 µM | 0.791 µM | > 100 µM | 0.596 µM | 4.93 µM | 0.745 µM | 2.29 µM | 0.994 µM | > 68.9 µM | 0.471 µM | 5.78 µM | 1.62 µM | 5.05 µM
CC(=O)Oc1ccc2ccc(=O)oc2c1OC(C)=O | – | > 100 µM | – | > 100 µM | – | > 100 µM | – | > 100 µM | – | > 100 µM | – | > 100 µM | – | > 100 µM | – | > 100 µM | – | > 100 µM | – | > 100 µM
C[N+](C)(C)CCC(=O)N1C/C(=C\c2ccccc2)C(=O)/C(=C/c2ccccc2)C1 | – | 18.2 µM | – | 30.6 µM | – | 9.82 µM | – | 30.6 µM | – | 7.93 µM | – | 7.31 µM | – | 33.6 µM | – | 13.4 µM | – | 6 µM | – | 11.8 µM
COc1ccc(S(=O)(=O)N2CCN(C(=O)OCc3ccccc3)CC2C(=O)NO)cc1 (stereo unspecified) | 10.1 µM | > 25 µM | 18.7 µM | > 25 µM | > 25 µM | > 25 µM | > 25 µM | > 25 µM | > 25 µM | > 25 µM | 5.37 µM | 18.4 µM | > 25 µM | > 25 µM | 4.09 µM | > 25 µM | > 25 µM | > 25 µM | > 25 µM | > 25 µM
COc1cc(C(=O)NC2CCN(C)CC2)ccc1Nc1ncc2c(n1)N(C1CCCC1)CC(F)(F)C(=O)N2C | 1.86 µM | 12.2 µM | < 0.01 µM | 0.0621 µM | < 0.0186 µM | 17.3 µM | 0.0188 µM | 12.1 µM | < 0.01 µM | 11.1 µM | < 0.01 µM | 1.79 µM | < 0.0167 µM | 2.61 µM | – | 16.8 µM | < 0.01 µM | 12.9 µM | 0.0215 µM | 5.13 µM
O=C(O)c1cc(N/C=C2\C(=O)c3ccccc3OC2O)ccc1O (stereo unspecified) | 13 mg/L | 42 mg/L | 18.9 mg/L | 59 mg/L | 24.5 mg/L | 78.9 mg/L | 29.3 mg/L | 74.9 mg/L | 28.8 mg/L | 71.6 mg/L | 15.3 mg/L | 72 mg/L | 29.8 mg/L | 75.3 mg/L | 20.6 mg/L | 61.8 mg/L | 18 mg/L | 43.6 mg/L | 16.7 mg/L | 43.9 mg/L
CCOC(=O)c1c[nH]c2c(OCc3ccccc3)c3ccccc3c(O)c2c1=O | 4.37 µM | 21.1 µM | 12.1 µM | > 74.2 µM | 15.2 µM | 60.8 µM | 54.7 µM | > 100 µM | 22.2 µM | > 100 µM | 6.24 µM | > 100 µM | 14.4 µM | 42.9 µM | 34.4 µM | > 100 µM | 5.78 µM | 25.4 µM | 2.53 µM | 11.2 µM
O=C1Nc2cc(Cl)ccc2Oc2cc(Oc3ccccc3)ccc21 | 3.81 µM | 38.8 µM | 6.52 µM | 26.6 µM | 5.5 µM | 51.4 µM | 8.69 µM | > 100 µM | 3.22 µM | 18.3 µM | 4.78 µM | > 100 µM | 5.68 µM | 20 µM | 5.42 µM | 29.9 µM | 5.26 µM | 23.8 µM | 8.53 µM | 40 µM
COc1cc(-c2cc(/C=C/C(=O)c3ccc4c(c3)OCO4)[nH]n2)cc(OC)c1OC | 5.51 µM | > 100 µM | 2.72 µM | 9.56 µM | 3.5 µM | > 100 µM | 3.37 µM | 93.5 µM | 2.18 µM | 4.55 µM | 2.98 µM | 9.15 µM | 2.18 µM | 5.17 µM | 5 µM | 62.1 µM | 2.01 µM | 5.45 µM | 2.07 µM | 5.73 µM
